Converted amounts (≈) assume the structure as drawn.
Tests used:
[1] = system: Hey8A cells inoculated into peritoneal cavity; experiment: Nodule formation in peritoneal cavity, Hey8A; assay type: in vivo, nu/nu mice; conditions: 0.25 mg/kg i.p. daily 5 days per week for two-three weeks
Description: The relationship between the nodule formation and timelines during tumor progression are established. Usually, 4 to 6 nodules are formed during the entire period of tumor progression in this system (Lander Jr., et al., 2005). We start the drug-treatment at times equivalent to 20% and 50% of full tumor progression. At these times, the number of nodule is less and the size (weight) of the nodules is smaller. At the end of the drug-treatment, animals are euthanized and number of tumor nodules is determined and the tumor size (mass) is weighted.
Animals: 40 nu/nu mice are used per experiment.
2 groups of mice (20 each) (i) Drug-treatment start at time equivalent to 20% of full tumor progression (or on 4 days after tumor inoculation) (ii) Drug-treatment starts at time equivalent to 50% of full tumor progression (or on 10 days after tumor inoculation). On the day of starting drug-treatment, half of the animals (10) will be scarified and the number and weight of nodules will measured.
Drug-Treatments: Animals are administered daily for 5 days per week for two—three weeks. Dose: 0.25 mg/kg, through i.p. route.

60 cancer cell lines = experiment: Test with 60 cancer cell lines; assay type: cell-based; conditions: most of 60 cancer cell lines tested
Procedure: To investigate the anti-tumor activity of Xanthoceras sorbifolia, we employed cancer cell lines derived from different human organs and tested the effect on growth activity. […] Intl App'l No. PCT/US04/33359 and U.S. Ser. No. 10/906,303. The active compound was then purified and named Xanifolia-Y. Its chemical structure was determined by 2D NMR and MS analysis. Xanifolia-Y is a novel triterpenoid saponin with a diangeloyl group attached at one end and carbohydrates or sugar moieties at another end of the triterpene structure. In an embodiment, the diangeloyl attached at C21, C22 positions and carbohydrates or sugar moieties at C3 position of a triterpene structure. The diangeloyl group is important for its activity. The purified compound has been tested with 60 cancer cell lines.

[2] = system: OVCAR3 cells (from ovary); experiment: MTT assay OVCAR3; assay type: cell-based; conditions: Homo sapiens, OVCAR-3; OVCAR3, Serous
Procedure: (§1) Cells. Human cancer cell lines were obtained from American Type Culture Collection: HTB-9 (bladder), HeLa-S3 (cervix), DU145 (prostate), H460 (lung), MCF-7 (breast), K562 (leukocytes), HCT116 (colon), HepG2 (liver), U2OS (bone), T98G (brain), SK-MEL-5 (Skin) and OVCAR-3 (ovary). The cells were grown in following culture media: HeLa-53, DU145, MCF-7, Hep-G2 and T98G are in MEN (Earle's salts); HTB-9, H460, K562 and OVCAR-3 in RPMI-1640; HCT-116 and U2OS in McCoy-5A. They are supplemented with 10% fetal calf serum, glutamine and antibiotics, and incubated in an incubator with 5% CO2 humidified at 37° C.
(§2) MTT Assay. […] The formazan (product of the reduction of tetrazolium by viable cells) formed and was dissolved with DMSO and the O.D. at 490 nm, and was measured by an ELISA reader. The MTT level of the cells before drug-treatment was also measured (T0). The % cell-growth (% G) is calculated as: % G=(TD−T0/TC−T0)×100(1), where TC or TD represents O.D. readings of control or drug-treated cells. When T0>TD, then the cytotoxicity (LC) expressed as % of the control is calculated as: % LC=(TD−T0/T0)×100(2).
Majority of ovarian cancers arise from the surface epithelium of ovary, most of them belong to the histological subtypes of clear cell and serous carcinoma. […] The inhibition activity exerted by Xanifolia-Y was determined with MTT assay.

(lung)H460 cells = experiment: MTT assay H460; assay type: cell-based; conditions: Homo sapiens, NCI-H460
Procedure: as §1
as §2, with “Assay. The procedure for MTT assay followed the method described by Carmichael et al. (1987) with modifications.” for “Assay.”

OVCA 429 = experiment: MTT assay OVCA 429; assay type: cell-based; conditions: Homo sapiens, OVCA429; OVCA 429, Serous
Procedure: (§3) Majority of ovarian cancers arise from the surface epithelium of ovary, most of them belong to the histological subtypes of clear cell and serous carcinoma. We obtained 10 more human ovarian carcinoma cell-lines of these histological subtypes for these studies. The inhibition activity exerted by Xanifolia-Y was determined with MTT assay.

OVCA 433 = experiment: MTT assay OVCA 433; assay type: cell-based; conditions: Homo sapiens, OVCA433; OVCA 433, Serous
Procedure: as §3

[3] = system: swelling of rats' feet induced by Carrageenin; experiment: Carrageenin-induced swollen feet model; assay type: in vivo, SD rats;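 note: percent increase in foot volume over pre-inflammation volume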
Procedure: SD rats, male, weighing 163±18 g were used in the experiment. The tested animals are allowed to acclimate for a week. The rats drink water freely. The rats were randomly divided into 5 groups: control, positive control and 3 test groups, and each group had 8 rats. The dose for 3 groups of rats are 10, 20 and 40 mg/kg. Indometacin for the positive control is 10 mg/kg and fed once after modeling. The dose of CMC-Na for the control group is the same as each test group and fed into the stomach once a day before modeling for 5 days. The tested drug was fed into the stomach 10 minutes before the animal modeling (1 mL/100 g). The volumes of right foot of each rat were measured 0.5, 1, 2 and 4 hours before and after modeling. The volumes of the right hind feet were measured at a different time, 10 minutes after inflammation induced by subcutaneous injection (with syringe needle 7) of 0.05 mL of the 1% of Carrageenin/normal saline mixture into the feet. The Rate of swelling of the feet was calculated, compared with the controls and subject to a student t-test. Rate of swelling (E) (%)=Ltn−Lt0/Lt0×100% • Ltn: volume of foot after the inflammation • Lt0: volume of foot before the inflammation

C/C=C(/C)C(=O)O[C@H]1[C@H](OC(=O)/C(C)=C\C)[C@@]2(CO)C(CC1(C)C)C1=CCC3[C@@]4(C)CC[C@H](O[C@@H]5OC(C(=O)O)[C@@H](O)C(O[C@@H]6O[C@@H](CO)C(O)C6O)C5O[C@@H]5OC(CO)[C@H](O)C(O)C5O)C(C)(C)C4CC[C@@]3(C)[C@]1(C)[C@@H](O)[C@H]2O (stereo partly drawn) [Xanifolia-Y, 3-O-[β-D-galactopyranosyl (1→2)]-α-L-arabinofuranosy (1→3)-β-D-glucuronopyranosyl-21,22-O-diangeloyl-3β, 15α, 16α, 21β, 22α, 28-hexahydroxyolean-12-ene]
numbers of tumor nodules [1]: less | size of tumor [1]: smaller | GI50 (60 cancer cell lines): 0.1 to 1 µM | IC50 [2]: 2.2 µM | IC50 ((lung)H460 cells): 7.5 µg/mL (≈ 6.57 µM) | IC50 (OVCA 429): 7 µM | IC50 (OVCA 433): 8.8 µM | Swelling rate after administration (%) ([3]; 10 mg/kg, 0.5 hour): 16.7% | Swelling rate after administration (%) ([3]; 10 mg/kg, 1 hour): 18.5% | Swelling rate after administration (%) ([3]; 10 mg/kg, 2 hours): 16.0% | Swelling rate after administration (%) ([3]; 10 mg/kg, 4 hours): 10.5% | Swelling rate after administration (%) ([3]; 20 mg/kg, 0.5 hour): 10.5% | Swelling rate after administration (%) ([3]; 20 mg/kg, 1 hour): 13.6% | Swelling rate after administration (%) ([3]; 20 mg/kg, 2 hours): 12.4% | Swelling rate after administration (%) ([3]; 20 mg/kg, 4 hours): 8.5% | Swelling rate after administration (%) ([3]; 40 mg/kg, 0.5 hour): 10.3% | Swelling rate after administration (%) ([3]; 40 mg/kg, 1 hour): 12.6% | Swelling rate after administration (%) ([3]; 40 mg/kg, 2 hours): 12.5% | Swelling rate after administration (%) ([3]; 40 mg/kg, 4 hours): 6.5%

Source: US10213451B2, “Methods and compounds for modulating the secretion or expression of adhesion proteins or angiopoietins of cells” (PACIFIC ARROW LIMITED, priority 2004, dated 2019)
